Experiment [1] relates to tobacco proteinase inhibitor protein. Nature of the experiment: Proteinase inhibitor inducing assay (tobacco leaves; supplied to young tobacco plants through cut stems). The class given is in vivo. The note with it: for Induction of tobacco proteinase inhibitor protein (in words): tobacco plants; for Concentrations for 1/2 maximal activity in Proteinase Inhibitor Inducing Assays (Tobacco Leaves): young tobacco plants, supplied through cut stems. As to the method:
The purified polypeptides were sequenced and named tobacco systemin I (peak I activity) (SEQ ID NO: 1) and tobacco systemin II (peak II activity) (SEQ ID NO: 2). Both are polypeptides of 18 amino acids and both are glycosylated. Using mild acid hydrolysis, the carbohydrates were removed, and the masses of both tobacco systemin I (SEQ ID NO: 1) and tobacco systemin II (SEQ ID NO: 2) were analyzed before and after acid hydrolysis using a MALDI-MS. The amino acid sequence of tobacco systemin I is NH2-RGANLPXXSXASSXXSKE-COO. (SEQ ID NO:1). The amino acid sequence of tobacco systemin II is NH2-NRKPLSXXSXKPADGQRP-COO (SEQ ID NO:2). The one letter abbreviation “X” represents hydroxyproline. The masses after acid hydrolysis exactly matched the masses obtained by sequence analysis. […] The potency of the tobacco systemins was similar to that found for tomato systemin (disclosed in U.S. Pat. No. 5,378,819) in its alkalinization response in tomato cell suspension cultures and in inducing proteinase inhibitors in leaves of excised tomato plants (Table 1).

Experiment [2] has as its system tobacco suspension cell cultures. Put plainly: Alkalinization assay (tobacco cell suspension cultures). The class given is cell-based, N. tabacum. The note with it: for EC50: 2 ml tobacco suspension cells, read-out: Concentrations for 1/2 maximal activity in Alkalinization Assays (Tobacco Cell Suspension Cultures); for Alkalinization of tobacco suspension cell cultures (in words): tobacco suspension cells. As to the method: Column fractions were assayed using suspension-cultured tobacco cells as follows. An aliquot of cells (usually 1 to 2 ml) were placed in the wells of culture plates, then aliquots from each column fraction (1 to 10 μL) were placed in each well of the culture plates. The cells in the plates were agitated by a circular motion of the rotary shaker on which they sat. The pH was then monitored over time and the change in pH at various times was plotted versus fraction number.
The two active peaks were solubilized in 1 ml 0.1% TFA each and injected into a narrow bore reversed-phase C18 column (Vydac, Column 218TP52, 2.1 by 250 mm, 5 μm beads, 300 angstrom pores). Solvent A consisted of 0.1% TFA in water, and solvent B was 0.05% TFA in methanol. Samples were injected in solvent A, and after 2 minutes, a 90 minute gradient from 0% solvent B to 30% solvent B was applied. The flow rate was 0.25 ml/min and the fractions (0.25 ml) were monitored at 214 nm and 2 μl were assayed for their alkalinization activity in tobacco cell cultures. The elution and alkalinization profiles for peak I activity are shown in FIG. 3A and FIG. 3B, respectively. The elution and alkalinization profile for peak II activity are shown in FIG. 4A and FIG. 4B, respectively.
The cells can be maintained in 125 mL Ehrlenmeyer flasks on an orbital shaker (160 rpm) under constant light. Three milliliters of cells are subcultured every seven days into 45 mL of sterile media (unbuffered, pH 5.5 adjusted with 0.1 M KOH) containing 3% sucrose, 4.3 g/L Murashige and Skoog salt mixture, 5 mg/L 1-napthylacetic acid, 2 mg/L 6-benzylaminopurine, 110 mg/L Nitsch and Nitsch vitamin powder, 1 mg/L thiamine, 100 mg/L myo-inositol and 1 mM EDTA. Cells can be used for alkalinization assays from 4 to 8 days after subculturing.

For a further experiment, the system named is MAP kinase protein. Put plainly: MAP kinase assay in tobacco leaf extracts. The class given is biochemical. The text has this: The ability of tobacco systemin I (SEQ ID NO: 1), tobacco systemin II (SEQ ID NO: 2) and the 5 kDa polypeptide, described in Example 2 herein, to stimulate the phosphorylation of a MAP kinase protein in tobacco leaf extracts was investigated. The MAP kinase assay utilized was essentially as described in Stratmann, J. W. and Ryan, C. A., Proc. Nat'l. Acad. Sci. U.S.A. 94:11085-11089 (1997), which publication is incorporated herein by reference.

Non-standard residues stand in square brackets, D forms with d. Hyp = O=C(O)[C@@H]1C[C@@H](O)CN1

In the case of “18 amino acid glycosylated polypeptide from tobacco, NH2-NRKPLSXXSXKPADGQRP-COO (X = hydroxyproline), 6 pentose units (H-NRKPLS[Hyp][Hyp]S[Hyp]KPADGQRP-OH; also: 6 pentose units glycosylation, places not given here) [Tob Sys II, tobacco systemin II]”, in experiment [1], the “Induction of tobacco proteinase inhibitor protein (in words)” value was “active at low picomole levels” and the “Concentrations for 1/2 maximal activity in Proteinase Inhibitor Inducing Assays (Tobacco Leaves)” value is listed as “˜200 fmol/plant”. In experiment [2], the EC50 was ~0.25 nM and the “Alkalinization of tobacco suspension cell cultures (in words)” value (“Alkalinization” below) is given as “active at low picomole levels”. The “MAP kinase stimulating activity (in words)” value in the experiment on MAP kinase protein was “possess MAP kinase stimulating activity”.
For the substance “18 amino acid glycosylated polypeptide from tobacco, NH2-RGANLPXXSXASSXXSKE-COO (X = hydroxyproline), 9 pentose units (H-RGANLP[Hyp][Hyp]S[Hyp]ASS[Hyp][Hyp]SKE-OH; also: 9 pentose units glycosylation, places not given here) [Tob Sys I, tobacco systemin I]”, in experiment [1], the “Induction of tobacco proteinase inhibitor protein (in words)” value is reported as “active at low picomole levels” and the “Concentrations for 1/2 maximal activity in Proteinase Inhibitor Inducing Assays (Tobacco Leaves)” value was “˜200 fmol/plant”. In experiment [2], the EC50 was ~0.25 nM and the “Alkalinization” value was “active at low picomole levels”.
As to “tomato systemin (AVQSKPPSKRDPPKMQTD; Systemin; UniProt P27058 179-196, looked up) [tomato systemin disclosed in U.S. Pat. No. 5,378,819, reference compound]”, in experiment [2], the “Alkalinization” value is given as “does not cause alkalinization”.
